Data set [1] has as its target T1, Glutamate NMDA receptor; GRIN1/GRIN2A (Homo sapiens, UniProt Q05586+Q12879). As to the kind of experiment: Antagonist activity at human GluN1/GluN2A receptor expressed in HEK293 cells assessed as inhibition of L-glutamate induced response at 3 uM at -60 mV membrane potential by patch clamp electrophysiology analysis. It is filed as cell-based. In general terms: Patch clamp records ionic current or voltage across a cell membrane.

Data set [2] deals with T2, Glutamate NMDA receptor; GRIN1/GRIN2B (Homo sapiens, UniProt Q05586+Q13224). Description: Antagonist activity at human GluN1/GluN2B receptor expressed in HEK293 cells assessed as inhibition of L-glutamate induced response at 3 uM at -60 mV membrane potential by patch clamp electrophysiology analysis. It is filed as cell-based.
Data set [3] can be described thus: Cytotoxicity against CHO-K1 cells assessed as reduction in cell viability incubated for 24 hrs by MTT assay. It is filed as toxicity, cell-based. The note with it: Chinese hamster (Cricetulus griseus). (In general: Formazan colour is commonly taken as a measure of viable cells.)
Data set [4] has as its target T1, Glutamate NMDA receptor; GRIN1/GRIN2A. As to the kind of experiment: Antagonist activity at human GluN1/GluN2A receptor expressed in HEK293 cells assessed as inhibition of L-glutamate induced response at -40 mV membrane potential by patch clamp electrophysiology analysis. It is filed as cell-based.
The target of data set [5] is T2, Glutamate NMDA receptor; GRIN1/GRIN2B. Description: Antagonist activity at human GluN1/GluN2B receptor expressed in HEK293 cells assessed as inhibition of L-glutamate induced response at -40 mV membrane potential by patch clamp electrophysiology analysis. It is filed as cell-based.
The target of data set [6] is T1, Glutamate NMDA receptor; GRIN1/GRIN2A. Description: Antagonist activity at human GluN1/GluN2A receptor expressed in HEK293 cells assessed as inhibition of offset time constant at -60 mV membrane potential by patch clamp electrophysiology analysis relative to control. It is filed as cell-based. The note with it: filed as antagonist, dose 1.0 µM.
Data set [7] shares this target. As to the kind of experiment: Antagonist activity at human GluN1/GluN2A receptor expressed in HEK293 cells assessed as inhibition of […] response at 1 uM onset measured by patch clamp electrophysiology analysis. It is filed as cell-based. The conditions noted are these: filed as antagonist.
Data set [8] in a line: Toxicity in male Wistar rat assessed as no observed adverse effect level (NOAEL) at 10 mg/kg, ip. It is filed as organism-based. The note with it: in vivo.
Data set [9] can be described thus: Toxicity in male Wistar rat assessed as decrease respiration at 20 mg/kg, ip. It is filed as organism-based. The conditions noted are these: in vivo.
A short description of data set [10]: Toxicity in male Wistar rat assessed as loss of activity at 20 mg/kg, ip. It is filed as organism-based. The note with it: in vivo.
Data set [11] can be described thus: Toxicity in male Wistar rat assessed as locomotion at 1 to 10 mg/kg, ip incubated for 15 min by open field test. It is filed as organism-based. The note with it: in vivo, 0.25 h, dose 1-10 mg/kg.
The nature of data set [12]: Toxicity in male Wistar rat assessed as effect on pre-pulse inhibition of acoustic startle response induced deficit at 1 to 10 mg/kg, ip by prepulse inhibition test. The note with it: in vivo, dose 1-10 mg/kg. It is filed as organism-based.
The subject of a further data set is Rattus norvegicus. As to the kind of experiment: In vivo neuroprotective activity in NMDA-induced hippocampal lesion male Wistar rat model assessed as decrease in damage score at 30 uM. It is filed as functional, organism-based.
The target of data set [13] is T1, Glutamate NMDA receptor; GRIN1/GRIN2A. Description: Antagonist activity at human GluN1/GluN2A receptor expressed in HEK293 cells assessed as inhibition of L-glutamate/glycine-induced steady state conditions of the current response at holding - 60 mV potential by measuring onset time constant at 1 to 100 uM incubated for 2 min followed by compound washout measured by patch clamp electrophysiology analysis. It is filed as cell-based. The conditions noted are these: filed as antagonist, dose 1-100 µM.

Data set [14] addresses T2, Glutamate NMDA receptor; GRIN1/GRIN2B. Description: Antagonist activity at human GluN1/GluN2B receptor expressed in HEK293 cells assessed as inhibition of L-glutamate/glycine-induced steady state conditions of the current response at holding - 60 mV potential by measuring onset time constant at 1 to 100 uM incubated for 2 min followed by compound washout measured by patch clamp electrophysiology analysis. It is filed as cell-based. The conditions noted are these: filed as antagonist, dose 1-100 µM.

Data set [15] can be described thus: Inhibition of human recombinant AChE measured by Ellman's method. Background: DTNB colorimetry detects thiols as they appear.
Data set [16] deals with T1, Glutamate NMDA receptor; GRIN1/GRIN2A. Description: Antagonist activity at human GluN1/GluN2A receptor expressed in HEK293 cells assessed as inhibition of L-glutamate/glycine-induced steady state conditions of the current response at holding - 60 mV potential by measuring offset time constant at 1 to 100 uM incubated for 2 min followed by compound washout measured by patch clamp electrophysiology analysis. The note with it: filed as antagonist, dose 1-100 µM. It is filed as cell-based.

Data set [17] has as its target T2, Glutamate NMDA receptor; GRIN1/GRIN2B. As to the kind of experiment: Antagonist activity at human GluN1/GluN2B receptor expressed in HEK293 cells assessed as inhibition of L-glutamate/glycine-induced steady state conditions of the current response at holding - 60 mV potential by measuring offset time constant at 1 to 100 uM incubated for 2 min followed by compound washout measured by patch clamp electrophysiology analysis. It is filed as cell-based. The conditions noted are these: filed as antagonist, dose 1-100 µM.

For data set [18], the target named is T1, Glutamate NMDA receptor; GRIN1/GRIN2A. As to the kind of experiment: Antagonist activity at human GluN1/GluN2A receptor expressed in HEK293 cells assessed as inhibition of L-glutamate induced response at -60 mV membrane potential by patch clamp electrophysiology analysis. It is filed as cell-based.
Data set [19] concerns the target T2, Glutamate NMDA receptor; GRIN1/GRIN2B. Description: Antagonist activity at human GluN1/GluN2B receptor expressed in HEK293 cells assessed as inhibition of L-glutamate induced response at -60 mV membrane potential by patch clamp electrophysiology analysis. It is filed as cell-based.
A short description of data set [20]: Toxicity in male Wistar rat assessed as hyperlocomotion at 0.2 mg/kg, ip incubated for 10 min by open field test. The note with it: in vivo. It is filed as organism-based.
The nature of data set [21]: Toxicity in male Wistar rat assessed as effect on pre-pulse inhibition of acoustic startle response induced deficit at 0.3 mg/kg, ip mg/kg by prepulse inhibition test. The note with it: in vivo. It is filed as organism-based.

pIC50: −log10 of the molar value. Calls of active or inactive are those of the source. No cut-off for these calls is given here.

For the compound `CCNC1c2ccccc2CCc2ccccc21`, the inhibition – broadly, the relative decrease from the control value, in per cent – in data set [1] was 34%; in [2] (filed as antagonist) it was 51.8%. In addition, the IC50 – broadly, the midpoint of a concentration-inhibition curve – at 24 h in [3] amounted to 364 µM.
Turning to `Cl.OCCNC1c2ccccc2CCc2ccccc21`, the inhibition in [1] (filed as antagonist) stood at 48%; in data set [2] (filed as antagonist), 49.7%; in data set [6], 99%. The IC50 at 24 h in [3] turned out to be 720 µM. The values for the pIC50 in data set [4] and in data set [5] were 3.56 and 3.67, respectively. In addition, the TIME in data set [7] was determined as 0.000112 h. For the same compound, the Activity result in [8] is on record as “Non-toxic”; in data set [9], “Toxic”; in data set [10], “Toxic”; in data set [11], “Non-toxic”; in data set [12], “Toxic”. The outcome (with Rattus norvegicus; in data set [13]; in data set [14]) was Active.
For the compound `c1ccc2c(c1)CCc1ccccc1C2N1CCCCC1`, the inhibition amounted to 5.4% in data set [1] and 5.2% in data set [2]. In data set [3], the IC50 at 24 h was 73.8 µM.
With `CC(C)CNC1c2ccccc2CCc2ccccc21`, the inhibition in data set [1] (filed as antagonist) was found to be 76.8%; in data set [2] (filed as antagonist), 91.6%. Further, in data set [3], the IC50 at 24 h turned out to be 92.4 µM.
Turning to `CCN1CCN(C2c3ccccc3CCc3ccccc32)CC1`, the inhibition came out at 7.64% in data set [1] and 5.22% in [2]. Moreover, the IC50 at 24 h in [3] came out at 147 µM.
`OCCNC1c2ccccc2C=Cc2ccccc21`: the inhibition stood at 38.2% in [1] and 48.8% in data set [2] (filed as antagonist). Moreover, the IC50 at 24 h in data set [3] was 333 µM.
The corresponding values for `C1=Cc2ccccc2C(N2CCCCC2)c2ccccc21` are 29.9%, 58.4% and 381 µM.
Consider `C1=Cc2ccccc2C(NC2CCCCC2)c2ccccc21`, for which the inhibition in [1] (filed as antagonist) is 92.1%; in [2] (filed as antagonist) it was 92.4%. In addition, in data set [3], the IC50 at 24 h was determined as 81.3 µM. In addition, the pIC50 (commonly −log10 of the IC50, conventionally taken in molar units) in [15] was 5.07.
As to `c1ccc2c(c1)CCc1ccccc1C2NC1CC1`, the inhibition was found to be 40.1% in data set [1] (filed as antagonist) and 53.6% in data set [2] (filed as antagonist). Also, the IC50 at 24 h in data set [3] was 177 µM.
On to `c1ccc2c(c1)CCc1ccccc1C2N1CCOCC1`, for which the inhibition in [1] is 6.78%; in data set [2] it was 3.43%. Further, the IC50 at 24 h in data set [3] was 95.2 µM.
Take `C1=Cc2ccccc2C(N2CCOCC2)c2ccccc21`: the inhibition is 31.9% in [1] and 57.6% in [2] (filed as antagonist). Moreover, the IC50 at 24 h in data set [3] was 165 µM.
With `C1=Cc2ccccc2C(NC2CC2)c2ccccc21`, the inhibition in data set [1] (filed as antagonist) is 45%; in data set [2] (filed as antagonist), 57.2%. In data set [3], the IC50 at 24 h stood at 260 µM.
With `c1ccc2c(c1)CCc1ccccc1C2NC1CCCCC1`, the inhibition was 79.4% in [1] (filed as antagonist) and 86% in [2] (filed as antagonist). For the same compound, in data set [3], the IC50 at 24 h was found to be 85 µM. The pIC50 in data set [15] was 4.84.
For `CC(C)CNC1c2ccccc2C=Cc2ccccc21.Cl`, the inhibition came to 93.2% in data set [1] (filed as antagonist), 91.8% in [2] (filed as antagonist) and 99% in data set [6]. Also, the IC50 at 24 h in [3] turned out to be 102 µM. The pIC50 is 4.65 in data set [4] and 4.93 in data set [5]. The Activity entry in data set [8] was “Non-toxic”; in [9], “Toxic”; in data set [10] it was “Toxic”; in [11] it was “Non-toxic”; in [12], “Toxic”; in [16], “Active; Compound Exhibited Slower Time Constant Offset Than 3L”. Further, in [17], the Activity result was “Active; Compound Exhibited Slower Time Constant Offset Than 3L”. Also, the result in data set [13] and in [14] was Active.
As to `CCCCNC1c2ccccc2CCc2ccccc21`, the values for the inhibition in data set [1] (filed as antagonist) and in data set [2] (filed as antagonist) were 76.4% and 85.8%, respectively. For the same compound, in data set [3], the IC50 at 24 h turned out to be 128 µM.
In the same order, the values of `C1=Cc2ccccc2C(N2CCCC2)c2ccccc21` are 48.6%, 85.5% and above 900 µM.
In the same order, the values of `CNC1c2ccccc2C=Cc2ccccc21` are 54.3%, 68.9% and 299 µM.
The corresponding values for `CNC1c2ccccc2CCc2ccccc21` are 82.3%, 71% and 410 µM.
In the case of `COCCNC1c2ccccc2C=Cc2ccccc21`, the inhibition in data set [1] came out at 35.6%; in data set [2] (filed as antagonist) it was 60%. Moreover, in [3], the IC50 at 24 h was determined as 390 µM.
As for `CN1CCN(C2c3ccccc3CCc3ccccc32)CC1`, the inhibition in data set [1] amounted to 9.7%; in [2] it was 9.49%. In addition, in data set [3], the IC50 at 24 h worked out at 122 µM.
On to `CCCCNC1c2ccccc2C=Cc2ccccc21`, for which the inhibition in [1] (filed as antagonist) was 81.1%; in data set [2] (filed as antagonist) it was 79.2%. In addition, the IC50 at 24 h in data set [3] was found to be 101 µM.
In the same order, the values of `CC(C)NC1c2ccccc2C=Cc2ccccc21` are 75.6%, 76% and 251 µM.
In the same order, the values of `CC(C)NC1c2ccccc2CCc2ccccc21` are 52.2%, 76.9% and 263 µM.
For the compound `CNC1(c2ccccc2Cl)CCCCC1=O` (stereo not drawn) [KETAMINE], the pIC50 in data set [18] is 6.30; in data set [19], 6.29; in data set [4], 4.27; in data set [5] it was 4.82.
Consider `C[C@]12N[C@H](Cc3ccccc31)c1ccccc12` [DIZOCILPINE], for which the Activity result in data set [20] and in data set [21] was “Toxic” in each case.
As for `CCN(CC)C1c2ccccc2CCc2ccccc21`, the inhibition was determined as 68.4% in data set [1] (filed as antagonist) and 75% in data set [2] (filed as antagonist). For the same compound, the IC50 at 24 h in data set [3] stood at 86.4 µM.
The corresponding values for `c1ccc2c(c1)CCc1ccccc1C2N1CCCC1` are 49.8%, 62.1% and 97.7 µM.
With `CCNC1c2ccccc2C=Cc2ccccc21`, the inhibition in [1] stood at 39.9%; in [2] (filed as antagonist) it was 59.9%. Also, the IC50 at 24 h in [3] worked out at 498 µM.
In the same order, the values of `COCCNC1c2ccccc2CCc2ccccc21` are 34.9%, 66.6% and 385 µM.

(Values after ChEMBL document CHEMBL6083260, “Dizocilpine derivatives as neuroprotective NMDA receptor antagonists without psychomimetic side effects” (Eur J Med Chem, 2024).)
